These results are taken from ChEMBL document CHEMBL1201862, “PubChem BioAssay data set” (2004).

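Where inhibition never reached the appropriate level, the endpoint shown equals the highest concentration tested. Otherwise, values were interpolated linearly from a five-concentration, 48-hour dose response in 96-well plates. The concentration for 50% growth inhibition is given as GI50.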 Calls of active or inactive are those of the source. Cut-off read from the data, not from the text of the source: active = GI50 up to about 1.1 µM and inactive = higher.

Test systems include OVCAR-3; NCI-H226; MDA-N; PC-3; MDA-MB-435; SF-268; DU-145; T47D; UO-31; LOX IMVI; SW-620; 786-0; UACC-62; A549; HOP-92; MDA-MB-231; K562; MCF7; HL-60; RPMI-8226.
Common to all, as to experiment: NCI anticancer screen, dose series, 48 h

Turning to `CC(CO)(CO)Nc1ncnc2ccccc12`, the GI50 in the experiment on OVCAR-3, in the experiment on NCI-H226, in the experiment on MDA-N, in the experiment with PC-3, with MDA-MB-435 and in the experiment with SF-268 was > 100 µM (inactive) each time. Further, the GI50 in the experiment with DU-145, with T47D, with UO-31, in the experiment on LOX IMVI, in the experiment with SW-620 and in the experiment on 786-0 was > 100 µM (inactive) throughout. Besides, the GI50 with UACC-62, in the experiment with A549, in the experiment with HOP-92, in the experiment on MDA-MB-231 and in the experiment with K562 was > 100 µM (inactive) throughout.
Consider `COc1cc([C@@H]2c3cc4c(cc3[C@@H](/N=C/c3ccc(C(=O)O[C@@H](C(=O)O[C@H]5C[C@@]6(O)[C@@H](OC(=O)c7ccccc7)[C@@H]7[C@]8(OC(C)=O)CO[C@@H]8C[C@H](O)[C@@]7(C)C(=O)[C@H](OC(C)=O)C(=C5C)C6(C)C)[C@@H](NC(=O)c5ccccc5)c5ccccc5)cc3)[C@H]3COC(=O)[C@H]23)OCO4)cc(OC)c1O`, for which the GI50 is 0.0128 µM (active) in the experiment with MCF7; 0.00893 µM (active) in the experiment with OVCAR-3; 0.075 µM (active) in the experiment on NCI-H226; 0.00589 µM (active) with MDA-N; 0.0138 µM (active) in the experiment with PC-3; < 0.005 µM (active) in the experiment with MDA-MB-435. In addition, the GI50 in the experiment on SF-268 was 0.0703 µM (active); with DU-145, 0.0261 µM (active); in the experiment with HL-60 it was 0.0149 µM (active); in the experiment with LOX IMVI, 0.11 µM (active); in the experiment on SW-620, 0.0297 µM (active); with 786-0 it was 0.0748 µM (active). Moreover, the GI50 in the experiment on UACC-62 is 0.0815 µM (active); in the experiment with A549 it was 0.0266 µM (active); in the experiment with RPMI-8226, < 0.005 µM (active); with HOP-92, > 36.4 µM (inactive); in the experiment on MDA-MB-231, 0.116 µM (active); in the experiment with K562, < 0.005 µM (active).
With `C=CCn1c(-c2ccc(Cl)cc2)cs/c1=N\c1ccccc1OC`, the GI50 with MCF7 is 27.4 µM (inactive); with OVCAR-3, 40.8 µM (inactive); with NCI-H226, > 64.7 µM (inactive); in the experiment with MDA-N, 2.1 µM (inactive); in the experiment on PC-3, 32.7 µM (inactive); in the experiment with MDA-MB-435 it was 5.06 µM (inactive). Also, the GI50 with SF-268 was > 100 µM (inactive); in the experiment with DU-145, > 100 µM (inactive); in the experiment on T47D, 2.34 µM (inactive); in the experiment with UO-31, > 100 µM (inactive); with HL-60, 14.9 µM (inactive); in the experiment with LOX IMVI it was 41.1 µM (inactive). Besides, the GI50 was 60 µM (inactive) in the experiment with SW-620; > 100 µM (inactive) with 786-0; 10.1 µM (inactive) with UACC-62; 33 µM (inactive) in the experiment with A549; 5.6 µM (inactive) in the experiment with RPMI-8226; > 65 µM (inactive) in the experiment with HOP-92. For the same compound, the GI50 with K562 was 3.44 µM (inactive).
Turning to `O=C1N/C(=N/N=C\c2ccccc2)N/C1=C/c1ccc(Cl)cc1`, the GI50 with MCF7 is 24.7 µM (inactive); in the experiment with OVCAR-3, 17.4 µM (inactive); in the experiment with NCI-H226, 15.5 µM (inactive); in the experiment on MDA-N, 34.3 µM (inactive); in the experiment with PC-3, 18.4 µM (inactive); with MDA-MB-435 it was 33.3 µM (inactive). In addition, the GI50 in the experiment with SF-268 was 22.2 µM (inactive); in the experiment with DU-145, 28.6 µM (inactive); in the experiment with T47D it was 21 µM (inactive); in the experiment on UO-31 it was 16.2 µM (inactive); with LOX IMVI it was 26.1 µM (inactive); in the experiment on SW-620, 30.6 µM (inactive). For the same compound, the GI50 is 29.8 µM (inactive) in the experiment on 786-0; 25.6 µM (inactive) with A549; 20 µM (inactive) in the experiment with RPMI-8226; 29.3 µM (inactive) with MDA-MB-231; 34 µM (inactive) in the experiment with K562.
On to `CN(C)c1nc2nonc2nc1Nc1ccccc1`, for which the GI50 with MCF7, in the experiment on NCI-H226, in the experiment with MDA-N, in the experiment with PC-3, with SF-268 and in the experiment with DU-145 was > 100 µM (inactive) in each case. The GI50 in the experiment on T47D, in the experiment on UO-31, in the experiment with HL-60, with LOX IMVI, in the experiment with SW-620 and in the experiment with 786-0 was > 100 µM (inactive) throughout. Also, the GI50 in the experiment on UACC-62, in the experiment with A549, with RPMI-8226, in the experiment with HOP-92, with MDA-MB-231 and in the experiment on K562 was > 100 µM (inactive) each time.
Turning to `Cc1ccc(OCC2OC(n3cnc4nc(N)nc(Cl)c43)CC2Oc2ccc(C)cc2)cc1` (centres undefined), the GI50 in the experiment on MCF7 was 15.1 µM (inactive); in the experiment on OVCAR-3, 18.6 µM (inactive); with NCI-H226, 18.1 µM (inactive); with MDA-N, 11.9 µM (inactive); in the experiment with PC-3 it was 21.9 µM (inactive); in the experiment with MDA-MB-435, 27.9 µM (inactive). Also, the GI50 was 15.4 µM (inactive) in the experiment with SF-268; 18 µM (inactive) in the experiment with DU-145; 14.9 µM (inactive) in the experiment on T47D; 15.7 µM (inactive) with LOX IMVI; 32.5 µM (inactive) with SW-620; 22.1 µM (inactive) with 786-0. Besides, the GI50 with UACC-62 is 27.5 µM (inactive); in the experiment with A549, 21.3 µM (inactive); in the experiment with RPMI-8226 it was 7.98 µM (inactive); with HOP-92, 17.3 µM (inactive); with MDA-MB-231, 34.6 µM (inactive).
In the case of `CCOC(=O)c1ccc(/N=c2/[nH]c3ccccc3s/c2=N/c2ccc(C(=O)OCC)cc2)cc1`, the GI50 with NCI-H226, in the experiment with MDA-N, with PC-3, in the experiment on MDA-MB-435, in the experiment on SF-268 and in the experiment on DU-145 was > 100 µM (inactive) each time. In addition, the GI50 in the experiment with T47D was > 100 µM (inactive); with UO-31, > 100 µM (inactive); in the experiment on HL-60, > 100 µM (inactive); in the experiment with LOX IMVI, > 100 µM (inactive); with SW-620, > 100 µM (inactive); in the experiment with 786-0, 25.4 µM (inactive). The GI50 in the experiment with UACC-62 is > 100 µM (inactive); in the experiment on A549, 95.7 µM (inactive); in the experiment on RPMI-8226, > 100 µM (inactive); in the experiment with HOP-92, > 100 µM (inactive); in the experiment with MDA-MB-231, > 100 µM (inactive); in the experiment on K562 it was > 100 µM (inactive).
Turning to `O=C1/C(=C2/CCCN2)C(c2ccc[nH]2)=NN1c1ccccc1`, the GI50 in the experiment on OVCAR-3, in the experiment on NCI-H226, in the experiment with MDA-N, in the experiment on PC-3, in the experiment on MDA-MB-435 and in the experiment with SF-268 was > 100 µM (inactive) each time. Moreover, the GI50 with DU-145, in the experiment with T47D, in the experiment on UO-31, in the experiment with HL-60, in the experiment with LOX IMVI and in the experiment on SW-620 was > 100 µM (inactive) throughout. Further, the GI50 in the experiment on 786-0, with UACC-62, in the experiment on A549, in the experiment with RPMI-8226, in the experiment on HOP-92 and in the experiment on MDA-MB-231 was > 100 µM (inactive) throughout. The GI50 with K562 was > 100 µM (inactive).
Consider `COc1cc(C2SCC(=O)N2c2cc(Cl)c(Cl)cc2Cl)cc(OC)c1OC` (centres undefined), for which the GI50 in the experiment on MCF7 was 37.7 µM (inactive); in the experiment on OVCAR-3, 22.2 µM (inactive); in the experiment with NCI-H226 it was 63.1 µM (inactive); with MDA-N it was 25.3 µM (inactive); in the experiment with PC-3 it was 62.8 µM (inactive); with MDA-MB-435 it was 30.5 µM (inactive). The GI50 is 90.2 µM (inactive) in the experiment with SF-268; 41.3 µM (inactive) with DU-145; 34.7 µM (inactive) with UO-31; 28.2 µM (inactive) with HL-60; 33.7 µM (inactive) with LOX IMVI; 82 µM (inactive) with SW-620. Further, the GI50 with 786-0 is 38.2 µM (inactive); in the experiment on UACC-62, 22.2 µM (inactive); in the experiment on A549 it was 38.5 µM (inactive); in the experiment on RPMI-8226, 32.4 µM (inactive); in the experiment with HOP-92, 28.6 µM (inactive); in the experiment on MDA-MB-231 it was > 100 µM (inactive). For the same compound, in the experiment on K562, the GI50 is 42 µM (inactive).
For the compound `COc1ccc2c(c1)c1c(C)c3cnccc3c(C)c1n2CCCN`, the GI50 with MCF7 was 0.251 µM (active); in the experiment on OVCAR-3, 0.453 µM (active); in the experiment with MDA-N it was 0.114 µM (active); with PC-3 it was 0.0715 µM (active); in the experiment with MDA-MB-435 it was 0.0502 µM (active); with DU-145 it was 0.0603 µM (active). Also, the GI50 was 0.284 µM (active) with T47D; 0.524 µM (active) in the experiment with UO-31; 0.0556 µM (active) in the experiment with LOX IMVI; 0.0466 µM (active) in the experiment on SW-620; 0.0288 µM (active) in the experiment with 786-0; 0.41 µM (active) with UACC-62. For the same compound, the GI50 with A549 is 0.296 µM (active); with HOP-92, 0.0968 µM (active); in the experiment with MDA-MB-231 it was 0.145 µM (active).
With `C[C@@H]1OC(=O)/C(=C\N(C)C)[C@H]2CC(=O)N(CCc3cn(S(=O)(=O)C(F)(F)F)c4ccccc34)C[C@H]12`, the GI50 with MCF7, with OVCAR-3, in the experiment with NCI-H226, in the experiment with MDA-N, with PC-3 and in the experiment on MDA-MB-435 was > 100 µM (inactive) in each case. Moreover, the GI50 in the experiment on SF-268, in the experiment with T47D, in the experiment with UO-31, in the experiment with LOX IMVI, in the experiment with SW-620 and in the experiment on 786-0 was > 100 µM (inactive) in each case. The GI50 with A549, in the experiment on RPMI-8226, in the experiment on HOP-92, in the experiment with MDA-MB-231 and with K562 was > 100 µM (inactive) in each case.
